Results reported in US20230212164A1, “ANNULATED 2-AMINO-3-CYANO THIOPHENES AND DERIVATIVES FOR THE TREATMENT OF CANCER” (BOEHRINGER INGELHEIM INTERNATIONAL GMBH, priority 2020, published 2023).

Tests used:
[1] = target: T1, protein-protein interaction between SOS1 and KRAS G12C (Homo sapiens, UniProt P01116, C118S/C51S/C80L/G12C); experiment: KRAS::SOS1 AlphaScreen binding assay
T1 construct: His6 (N)
Procedure: KRAS::SOS1 AlphaScreen Binding Assay
Assay buffer: • 1×PBS • 0.1% BSA • 0.05% Tween 20
AlphaLISA Glutathione Acceptor Beads and AlphaScreen Streptavidin Donor Beads are mixed in assay buffer at a concentration of 10 μg/mL (final assay concentration) each prior to use and kept at room temperature.
Compounds are diluted to a final start concentration of 100 μM and are tested in duplicate. […] For compound a start concentration of 100 μM, 150 nL of compound solution is transferred per well in 11 concentrations in duplicate with serial 1:5 dilutions.
The assay is run using a fully automated robotic system in a darkened room below 100 Lux. 10 μL of KRAS::SOS1 GDP mix is added into columns 1-24 to the 150 nL of compound solution (final dilution in the assay 1:100, final DMSO concentration 1%).
After 30 minutes incubation time 5 μL of bead mix is added into columns 1-23. Plates are kept at room temperature in a darkened incubator. After further 60 minutes incubation, the signal is measured using a PerkinElmer Envision HTS Multilabel Reader using the AlphaScreen specifications from PerkinElmer. Each plate contains the following controls: • diluted DMSO+KRAS::SOS1 GDP mix+bead mix • diluted DMSO+KRAS::SOS1 GDP mix
IC50 values are calculated and analyzed using a 4 parametric logistic model.

[2] = tested on: pERK (Thr202/Tyr204) in NCI-H358 (KRAS G12C mutation); experiment: ERK phosphorylation assay 1 (AlphaLISA SureFire Ultra p-ERK1/2); settings: Homo sapiens, NCI-H358, read-out: IC50 H358 pERK
Procedure: ERK Phosphorylation Assay
Materials Used for the Assay:
AlphaLISA SureFire Ultra p-ERK1/2 (Thr202/Tyr204) Assay Kit (ALSU-PERK-A500)
The cells are incubated for 1 h at room temperature and then incubated overnight in an incubator at 37° C. and 5% CO2 in a humidified atmosphere. 60 nL compound solution (10 mM DMSO stock solution) is then added using a Labcyte Echo 550 device. […] After 20 minutes of incubation at room temperature with shaking, 6 μL of each lysate sample is transferred to a 384-well Proxiplate and analyzed for pERK (Thr202/Tyr204) with the AlphaLISA SureFire Ultra pERK1/2 (Thr202/Tyr204) Assay Kit. 3 μL Acceptor Mix and 3 μL Donor Mix are added under subdued light and incubated for 2 h at room temperature in the dark, before the signal is measured on a PerkinElmer Envision HTS Multilabel Reader. The raw data were imported into and analyzed with the Boehringer Ingelheim proprietary software MegaLab (curve fitting based on the program PRISM, GraphPad Inc.).

T1 sequence (P01116 1-169 isoform P01116-2 G12C/C51S/C80L/C118S): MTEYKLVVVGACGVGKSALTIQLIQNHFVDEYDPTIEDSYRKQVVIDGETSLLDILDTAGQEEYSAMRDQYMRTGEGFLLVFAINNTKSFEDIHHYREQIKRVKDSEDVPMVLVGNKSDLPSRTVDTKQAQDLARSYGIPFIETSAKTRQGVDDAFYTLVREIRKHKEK

Row | Structure (SMILES) | IC50 ([1]; Table 36) | IC50 [2] | further results
1 | C=CC(=O)N1CC(CN(C)c2cc(-c3noc([C@@]4(C)CCCc5sc(N)c(C#N)c54)n3)nc(N3CCCN(C)C[C@@H]3C)n2)C1 [Ia-93] | 381 nM | – | –
2 | C=CC(=O)N1CCN(c2cc(-c3noc(C4(C)CCCc5sc(N)c(C#N)c54)n3)nc(N3CCNCC3)c2)CC1 (stereo not shown) [Ia-170] | – | 269 nM | IC50 ([1]; Table 40): 87 nM
3 | C=CC(=O)N1CCN(c2cc(OCCCN(C)C)cc(-c3noc(C4(C)CCCc5sc(N)c(C#N)c54)n3)c2)CC1 (stereo not shown) [Ia-142] | 176 nM | 36.4 nM | –
4 | C=CC(=O)N1CCN(c2cc(-c3noc(C4(C)CCCc5sc(N)c(C#N)c54)n3)nc(N3CCN(CC)CC3)c2)CC1C (stereo not shown) [Ia-107] | 198 nM | 29.3 nM | –
5 | C=CC(=O)N1CCN(c2cc(-c3noc(C4(C)CCCc5sc(N)c(C#N)c54)n3)nc(N3CCC(N4CCOCC4)CC3)c2)CC1 (stereo not shown) [Ia-29] | 48 nM | 7.8 nM | –
6 | C=CC(=O)N1CCN(c2cc(-c3noc(C4(C)CCCc5sc(N)c(C#N)c54)n3)nc(N3CCN(C(C)C)C(C)C3)c2)CC1 (stereo not shown) [Ia-150] | 71 nM | 9.5 nM | –
7 | C=CC(=O)N1C[C@@H]2CN(c3cc(-c4noc(C5(C)CCCc6sc(N)c(C#N)c65)n4)nc(N4CCN(C5CCCC5)CC4)c3)[C@@H]2C1 (stereo partly shown) [Ia-9] | 216 nM | 54.6 nM | –
8 | C=CC(=O)N1CCN(c2cc(-c3noc(C4(C)CCCc5sc(N)c(C#N)c54)n3)nc(N3CCC(N4CCCCC4)C3)c2)CC1 (stereo not shown) [Ia-22] | 40 nM | 6.7 nM | –
9 | C=CC(=O)N1CCN(c2cc(OC3CCN(C)CC3)nc(-c3noc(C4(C)CCCc5sc(N)c(C#N)c54)n3)c2)CC1 (stereo not shown) [Ia-118] | 21 nM | 7.5 nM | –
10 | C=CC(=O)N1CCN(c2cc(-c3noc(C4(C)CCCc5sc(N)c(C#N)c54)n3)nc(N3CCN(C4CC4)CC3)c2)CC1 (stereo not shown) [Ia-17] | 260 nM | 29.4 nM | –
11 | C=CC(=O)N1CCCN(c2cc(-c3noc(C4(C)CCCc5sc(N)c(C#N)c54)n3)nc(N3CCN(C)CC3)c2)CC1 (stereo not shown) [Ia-124] | 158 nM | 76.6 nM | –
12 | CC#CC(=O)N1CCN(c2cc(-c3noc(C4(C)CCCc5sc(N)c(C#N)c54)n3)nc(N3CCN(C)CC3)c2)CC1 (stereo not shown) [Ia-168] | – | – | IC50 ([1]; Table 38): 1020 nM
13 | C=CC(=O)N1CCC(Oc2cc(-c3noc(C4(C)CCCc5sc(N)c(C#N)c54)n3)nc(N3CCN(C4CCCC4)CC3)c2)CC1 (stereo not shown) [Ia-111] | 418 nM | 92.5 nM | –
14 | C=CC(=O)N1CCN(c2cc(-c3noc(C4(C)CCCc5sc(N)c(C#N)c54)n3)nc(N3CCN(C4CCC(F)(F)CC4)CC3)c2)CC1 (stereo not shown) [Ia-24] | 406 nM | 80.1 nM | –
15 | C=CC(=O)N1CCN(c2cc(-c3noc(C4(C)CCCc5sc(N)c(C#N)c54)n3)nc(N3CCC(N4CCCCC4)CC3)c2)CC1 (stereo not shown) [Ia-37] | 47 nM | 12.3 nM | –
16 | C=CC(=O)N1CCN(c2cc(-c3noc(C4(C)CCCc5sc(N)c(C#N)c54)n3)nc(N3CCN(C)CC3)c2)CC1 (stereo not shown) [Ia-87] | 51 nM | 10 nM | –
17 | C=CC(=O)N1CCC(c2cc(-c3noc(C4(C)CCCc5sc(N)c(C#N)c54)n3)nc(N3CCN(C)CC3)c2)CC1 (stereo not shown) [Ia-1] | – | 31.4 nM | IC50 ([1]; Table 35): 123 nM
18 | C=CC(=O)N1CCN(c2cc(OCCN3CCCC3)cc(-c3noc(C4(C)CCCc5sc(N)c(C#N)c54)n3)c2)CC1 (stereo not shown) [Ia-144] | 647 nM | 68.7 nM | –
19 | C=CC(=O)N1CC[C@@H](Oc2cc(-c3noc([C@@]4(C)CCCc5sc(N)c(C#N)c54)n3)nc(N3CCN(C)CC3)c2)C1 [Ia-112] | 73 nM | 18.5 nM | –
20 | C=CC(=O)N1CCN(c2cc(-c3noc(C4(C)CCCc5sc(N)c(C#N)c54)n3)nc(N3CCC(N4CC[C@H](F)C4)CC3)c2)CC1 (stereo partly shown) [Ia-40] | 19 nM | 5.3 nM | –
21 | C=CC(=O)N1CCCC(Oc2cc(-c3noc(C4(C)CCCc5sc(N)c(C#N)c54)n3)nc(N3CCN(C)CC3)c2)CC1 (stereo not shown) [Ia-145] | 377 nM | 93.5 nM | –
22 | C=CC(=O)N1CCN(c2cc(-c3noc(C4(C)CCCc5sc(N)c(C#N)c54)n3)nc(N3CCC(N4CCC(F)C4)CC3)c2)CC1 (stereo not shown) [Ia-38] | 22 nM | 5.8 nM | –
23 | C=CC(=O)N1CCN(c2cc(-c3noc(C4(C)CCCc5sc(N)c(C#N)c54)n3)nc(N3CCN4CCCCC4C3)c2)CC1 (stereo not shown) [Ia-149] | 47 nM | 8.6 nM | –
24 | C=CC(=O)N1CCN(c2cc(-c3noc(C4(C)CC(F)(F)Cc5sc(N)c(C#N)c54)n3)nc(N3CCN(C)CC3)c2)CC1 (stereo not shown) [Ia-113] | 730 nM | 376 nM | –
25 | C=CC(=O)N1CCC(Oc2cc(-c3noc([C@@]4(C)CCCc5sc(N)c(C#N)c54)n3)nc(N3CCN(C)CC3)c2)CC1 [Ia-91] | 49 nM | 11.6 nM | –
26 | C=CC(=O)N1CCC(Oc2cc(-c3noc(C4(C)CCC(C)c5sc(N)c(C#N)c54)n3)nc(N3CCN(C)CC3)c2)CC1 (stereo not shown) [Ia-120] | 405 nM | 111 nM | –

Row | Structure (SMILES) | IC50 ([1]; Table 36) | IC50 [2] | further results
27 | C=CC(=O)N1CCN(c2cc(-c3noc([C@@]4(C)CCCc5sc(N)c(C#N)c54)n3)nc(N3CCN(CC)CC3)c2)CC1 [Ia-126] | 30 nM | 4.2 nM | –
28 | C=CC(=O)N1CCN(c2cc(-c3noc(C4(C)CCCc5sc(N)c(C#N)c54)n3)nc(N3CCN(C(C)C)CC3)c2)CC1 (stereo not shown) [Ia-110] | 76 nM | 8.7 nM | –
29 | C=CC(=O)N1CCN(c2cc(-c3noc(C4(C)CCC(C)c5sc(N)c(C#N)c54)n3)nc(N3CCN(C)CC3)c2)CC1 (stereo not shown) [Ia-12] | 117 nM | 13.5 nM | –
30 | C=CC(=O)N1CCN(c2cc(-c3noc(C4(C)CCCc5sc(N)c(C#N)c54)n3)nc(N3CCN(C4CCCC4)CC3)c2)CC1 (stereo not shown) [Ia-147] | 71 nM | – | –
31 | C=CC(=O)N1CCC(c2cc(-c3noc(C4(C)CCCc5sc(N)c(C#N)c54)n3)nc(N3CCN(C4CCCC4)CC3)c2)CC1 (stereo not shown) [Ia-2] | – | 131 nM | IC50 ([1]; Table 35): 336 nM
32 | C=CC(=O)N1CCN(c2cc(-c3noc(C4(C)CCC(C)c5sc(N)c(C#N)c54)n3)nc(N3CCN(C4CCCC4)CC3)c2)CC1 (stereo not shown) [Ia-10] | 254 nM | 38.5 nM | –
33 | C=CC(=O)N1CCN(c2cc(-c3noc(C4CCCc5sc(N)c(C#N)c54)n3)nc(N3CCN(C)CC3)c2)CC1 (stereo not shown) [Ia-27] | 240 nM | 61.6 nM | –
34 | C=CC(=O)N1CCN(c2cc(-c3noc(C4(C)CCCc5sc(N)c(C#N)c54)n3)nc(N3CCN(C)CC34CC4)c2)CC1 (stereo not shown) [Ia-25] | 186 nM | 112 nM | –
35 | C=CC(=O)N(C)c1cccc(-c2cc(-c3noc(C4(C)CCCc5sc(N)c(C#N)c54)n3)nc(N3CCN(C)CC3)c2)c1 (stereo not shown) [Ia-151] | 1190 nM | 182 nM | –
36 | C=CC(=O)N1CCN(c2cc(-c3noc(C4(C)CCC(C)c5sc(N)c(C#N)c54)n3)nc(N3CCN(C)CC3)c2)CC1C (stereo not shown) [Ia-104] | 635 nM | 71.8 nM | –
37 | C=CC(=O)N1CCN(c2cc(-c3noc(C4(C)CCCc5sc(N)c(C#N)c54)n3)nc(N3CCC(N4CCCC4)CC3)c2)CC1 (stereo not shown) [Ia-36] | 24 nM | 12.2 nM | –
38 | C=CC(=O)N1CCN(c2cc(-c3noc(C4(C)CCCc5sc(N)c(C#N)c54)n3)nc(N3CCN(C4CCN(C)CC4)CC3)c2)CC1 (stereo not shown) [Ia-28] | 152 nM | 785 nM | –
39 | C=CC(=O)N1CCN(c2cc(-c3noc(C4(C)CCCc5sc(N)c(C#N)c54)n3)nc(N3CCN(CC4CC4)CC3)c2)CC1 (stereo not shown) [Ia-121] | 50 nM | 9.9 nM | –
40 | C=CC(=O)N1CCN(c2cc(-c3noc(C4(C)CCCc5sc(N)c(C#N)c54)n3)nc(N3C[C@@H](C)N(CC)[C@@H](C)C3)c2)CC1 (stereo partly shown) [Ia-21] | 51 nM | 7.4 nM | –
41 | C=CC(=O)N1CCN(c2cc(-c3noc([C@@]4(C)CCCc5sc(N)c(C#N)c54)n3)nc(N3CCN(C)C[C@@H]3C)c2)CC1 [Ia-14] | – | 2.7 nM | –
42 | C=CC(=O)N1CCN(c2cc(-c3noc([C@]4(C)CCCc5sc(N)c(C#N)c54)n3)nc(N3CCN(C)C[C@@H]3C)c2)CC1 [Ia-13] | – | 7.3 nM | –
43 | C=CC(=O)N1CCN(c2cc(OCCN(C)C)cc(-c3noc(C4(C)CCCc5sc(N)c(C#N)c54)n3)c2)CC1 (stereo not shown) [Ia-90] | 250 nM | – | –
44 | C=CC(=O)N1CCC(Oc2cc(O[C@@H](C)[C@@H]3CCCN3C)nc(-c3noc([C@]4(C)CCCc5sc(N)c(C#N)c54)n3)c2)CC1 [Ia-5] | 622 nM | – | –
45 | C=CC(=O)N1CCCN(c2cc(-c3noc([C@@]4(C)CCCc5sc(N)c(C#N)c54)n3)nc(N3CCCN(CCCOC)C[C@@H]3C)n2)CC1 [Ia-45] | 6 nM | – | –
46 | C=CC(=O)N1CCC2C1CCN2c1cc(-c2noc([C@@]3(C)CCCc4sc(N)c(C#N)c43)n2)nc(N2CCCN(C)C[C@@H]2C)n1 (stereo partly shown) [Ia-103] | 143 nM | – | –
47 | C=CC(=O)N1CCC2(CCN(c3cc(-c4noc([C@@]5(C)CCCc6sc(N)c(C#N)c65)n4)nc(N4CCCN(C)C[C@@H]4C)n3)C2)C1 (stereo partly shown) [Ia-96] | 799 nM | – | –
48 | C=CC(=O)N1CC2=C(C1)CN(c1cc(-c3noc([C@@]4(C)CCCc5sc(N)c(C#N)c54)n3)nc(N3CCCN(C)C[C@@H]3C)n1)C2 [Ia-102] | 117 nM | – | –
49 | C=CC(=O)N1CCN(c2cc(-c3noc(C4(C)CCCc5sc(N)c(C#N)c54)n3)nc(N3CCN(C(C)(C)C)CC3)c2)CC1 (stereo not shown) [Ia-31] | 83 nM | – | –
50 | C=CC(=O)N1CCN(c2cc(OCCN(C)C)nc(-c3noc(C4(C)CCCc5sc(N)c(C#N)c54)n3)c2)CC1 (stereo not shown) [Ia-89] | 48 nM | – | –
51 | C=CC(=O)N1CCN(c2cc(-c3noc([C@@]4(C)CCCc5sc(N)c(C#N)c54)n3)nc(N3CCN(C)C[C@H]3C)c2)CC1 [Ia-119] | – | 24.2 nM | –
